#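 Dose response: 5 concentrations. Exposure: 48 h. Format: 96-well plates. Endpoint: linear interpolation; highest concentration if not reached. The concentration for 50% growth inhibition is given as GI50. Definition used: TGI = concentration required for complete inhibition of growth.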 Where a SMILES comes first, the peptide text is derived from it. [ ]: non-standard residue; d: D form. The star is where a group is joined. ξ: configuration not given here. X37 = O=C(OCc1ccccc1)[C@@H]1CCC[C@H]1N*; Fmoc = O=C(OCC1c2ccccc2-c2ccccc21)*; ξW = NC(Cc1c[nH]c2ccccc12)C(=O)O; ξF = NC(Cc1ccccc1)C(=O)O; Boc = CC(C)(C)OC(=O)*; ξK = NCCCCC(N)C(=O)O; ξT = CC(O)C(N)C(=O)O; tBu = CC(C)(C)*
# Key:
# Experiment in all cases: growth of human tumour cells (NCI), 48 h
# [1] = tested on: SR leukemia
# [2] = tested on: T-47D breast
# [3] = tested on: HS 578T breast
# [4] = tested on: RXF 393 renal
# [5] = tested on: HCT-116 colon
# [6] = tested on: NCI-H522 lung
# [7] = tested on: CCRF-CEM leukemia
# [8] = tested on: MOLT-4 leukemia
# [9] = tested on: SW-620 colon
# [10] = tested on: 786-0 renal
SMILES,TGI [1],TGI [2],TGI [3],TGI [4],TGI [5],TGI [6],TGI [7],TGI [8],TGI [9],TGI [10],GI50 [1],GI50 [2],GI50 [3],GI50 [4],GI50 [6],GI50 [7],GI50 [8],GI50 [9]
COc1cc(/C=C\c2ccc(SC)cc2)cc(OC)c1OC,15.1 µM,> 100 µM,> 100 µM,0.0402 µM,> 26.3 µM,0.0369 µM,> 47.1 µM,28.9 µM,> 100 µM,18.5 µM,,,,,,,,
CCOc1ccc(N=NC2C(=O)N(C(=O)CC(=O)Nc3ccc(Cl)cc3)N=C2C)cc1 (stereo not given),> 100 µM,> 100 µM,> 100 µM,> 100 µM,> 100 µM,> 100 µM,> 100 µM,,> 100 µM,> 100 µM,,,,,,,,
CCOC(=O)C1(C(=O)OCC)C[C@H]2CON=C2[C@@H]1c1ccc(C(F)(F)F)cc1,> 100 µM,94.3 µM,> 100 µM,> 100 µM,> 100 µM,61 µM,23.7 µM,> 100 µM,> 100 µM,> 100 µM,,,,,,,,
Cc1cc(SCC(=O)c2ccc(Br)cc2)cc(C)[o+]1,> 100 µM,48.8 µM,> 100 µM,62 µM,65.7 µM,65.2 µM,44 µM,56.2 µM,> 100 µM,> 100 µM,,,,,,,,
CC1(c2cccc(C3CCC4(C=CC3=O)OCCO4)c2)OCCO1 (stereo not given),12.5 µM,23.5 µM,41.8 µM,11.5 µM,13.2 µM,3.53 µM,10.5 µM,12 µM,8.07 µM,11 µM,,,,,,,,
c1ccc(COc2nc3ccc(C45CC6CC(CC(C6)C4)C5)cc3[nH]2)cc1,> 100 µM,34.1 µM,> 75.7 µM,55.8 µM,> 83.5 µM,13.9 µM,> 100 µM,> 66.7 µM,> 100 µM,> 100 µM,,,,,,,,
CCc1nnc2sc(-c3ccc(-c4ccc(Cl)cc4Cl)o3)nn12,> 100 µM,> 100 µM,> 100 µM,22.3 µM,> 100 µM,> 100 µM,> 100 µM,> 100 µM,> 100 µM,> 100 µM,,,,,,,,
COc1ccc2c(c1)CCC(CN1CCN(CCOC(c3ccc(F)cc3)c3ccc(F)cc3)CC1)=C2,27.7 µM,> 100 µM,50.7 µM,26.8 µM,21.2 µM,27.8 µM,> 100 µM,48.7 µM,> 100 µM,27.2 µM,,,,,,,,
CC(C)C[C@H](NC(=O)[C@@H](Cc1cccc2ccccc12)NC(=O)N1CCOCC1)B(O)O,19.4 µM,5.43 µM,> 25.6 µM,6.8 µM,5.94 µM,4.4 µM,15.2 µM,> 100 µM,12.2 µM,19.7 µM,,,,,,,,
C[N+](C)(C)CCCCCc1c2nc(c(CCCCC[N+](C)(C)C)c3ccc([nH]3)c(CCCCC[N+](C)(C)C)c3ccc([nH]3)c(CCCCC[N+](C)(C)C)c3nc1C=C3)C=C2,> 100 µM,> 100 µM,> 100 µM,7.32 µM,> 100 µM,> 100 µM,> 100 µM,> 100 µM,> 100 µM,> 100 µM,,,,,,,,
NC12c3c4cccc3Oc3cccc(c31)Oc1cccc(c12)O4,> 50 µM,> 50 µM,> 50 µM,> 50 µM,> 50 µM,> 50 µM,> 50 µM,> 50 µM,> 50 µM,> 50 µM,,,,,,,,
Cc1[nH]n(C(=O)c2ccccc2O)c(=O)c1/C=C1\C(=O)C=Cc2ccccc21,> 100 µM,> 100 µM,> 100 µM,18.8 µM,> 45.5 µM,15.1 µM,> 36.4 µM,> 100 µM,> 100 µM,10.1 µM,,,,,,,,
NC(=O)c1cc2ccccc2c(N=Nc2ccccc2)c1O,> 100 µM,> 100 µM,> 100 µM,> 100 µM,> 100 µM,> 100 µM,> 100 µM,> 100 µM,> 100 µM,> 100 µM,,,,,,,,
CC(C)(C)c1cc(C2COC(=O)COCCOCC(=O)OCCOCCO2)cc(C(C)(C)C)c1O (stereo not given),64.2 µM,> 31.6 µM,77.7 µM,47 µM,> 100 µM,> 94 µM,> 100 µM,> 100 µM,> 100 µM,32.5 µM,,,,,,,,
CC(C)(C)[C@@H]1NC(=O)CN1C(=O)OCc1ccccc1,> 100 µM,> 100 µM,> 100 µM,> 100 µM,> 100 µM,> 100 µM,> 100 µM,> 100 µM,> 100 µM,> 100 µM,,,,,,,,
CCOC(=O)Nc1ccc(S(=O)(=O)Nc2ccc(Br)cc2)cc1,50.4 µM,> 100 µM,> 100 µM,> 100 µM,> 100 µM,> 100 µM,> 100 µM,> 100 µM,> 100 µM,> 100 µM,,,,,,,,
CC(OC(C)(C)C)C(NC(=O)C(CCCCNC(=O)OC(C)(C)C)NC(=O)C(Cc1c[nH]c2ccccc12)NC(=O)C(Cc1ccccc1)NC(=O)OCC1c2ccccc2-c2ccccc21)C(=O)NC(Cc1ccccc1)C(=O)N[C@@H]1CCC[C@H]1C(=O)OCc1ccccc1 (stereo not given in full) (Fmoc-[ξF][ξW][ξK](Boc)[ξT](tBu)[ξF]-X37),> 100 µM,> 100 µM,> 100 µM,> 100 µM,> 100 µM,> 100 µM,> 100 µM,> 100 µM,> 100 µM,> 100 µM,,,,,,,,
CCOC(=O)c1ccc(N=C/C=C(\Nc2ccc(C(=O)OCC)cc2)c2ccc3ccccc3c2)cc1,41.6 µM,43.2 µM,96.3 µM,57.3 µM,> 100 µM,> 100 µM,46.5 µM,16.1 µM,> 100 µM,64.1 µM,,,,,,,,

SMILES,TGI [1],TGI [2],TGI [3],TGI [4],TGI [5],TGI [6],TGI [7],TGI [8],TGI [9],TGI [10],GI50 [1],GI50 [2],GI50 [3],GI50 [4],GI50 [6],GI50 [7],GI50 [8],GI50 [9]
COc1ccc(OC)c2c1C[C@@H]1C(C#N)N3[C@H](Cc4c(OC)ccc(OC)c4[C@@H]3C)C(=O)N1[C@H]2C (stereo not given in full),9.12 µM,15.1 µM,> 100 µM,3.44 µM,11.8 µM,3.3 µM,6.75 µM,15.9 µM,8.41 µM,7.72 µM,,,,,,,,
COCOc1cc(OC)ccc1C=O,78.4 µM,> 100 µM,64.9 µM,39.1 µM,> 100 µM,> 100 µM,> 100 µM,> 100 µM,> 100 µM,> 100 µM,,,,,,,,
COc1cc(O)c(C(=O)/C=C/c2ccc(O)cc2)cc1Oc1ccc(C(=O)/C=C/c2ccc(O)cc2)c(O)c1,> 100 µM,8.86 µM,82.8 µM,6.1 µM,4 µM,6.22 µM,33.8 µM,> 100 µM,11 µM,5.73 µM,,,,,,,,
CN1CCN(c2ccc3nc(-c4ccc(OCCCN5C(=O)c6cccc7cccc(c67)C5=O)cc4)[nH]c3c2)CC1,5.94 µM,34.3 µM,4.6 µM,41.7 µM,,> 88.8 µM,7.48 µM,5.05 µM,3.44 µM,,2.69 µM,4.8 µM,2.11 µM,10 µM,24.9 µM,2.62 µM,2.06 µM,1.83 µM
OC1(c2ccc(Cl)cc2)c2ccccc2C2=Nc3ccccc3CN21 (stereo not given),> 84.8 µM,> 100 µM,74.1 µM,55.4 µM,19 µM,67.2 µM,> 100 µM,> 100 µM,> 100 µM,25.8 µM,,,,,,,,
CCC1=C(C)C2=NC1=CC1=NC(=C(CC)/C1=C/O)C=C1N=C3C(=C1C)C(=O)C(C(=O)OC)C3=C1NC(=C2)C(C)C1CCC(=O)OC (stereo not given),> 100 µM,> 100 µM,> 100 µM,> 100 µM,> 100 µM,> 100 µM,> 100 µM,> 100 µM,> 100 µM,> 100 µM,,,,,,,,
COc1ccc(N=NN2CCCC2)cc1,> 100 µM,49.2 µM,> 100 µM,64.1 µM,38.6 µM,32.2 µM,56.6 µM,60.6 µM,81.4 µM,32.7 µM,,,,,,,,
Cc1ccc(Nc2ncnc3sc(SCc4ccccc4)nc23)cc1,> 100 µM,> 100 µM,> 100 µM,> 100 µM,> 100 µM,> 100 µM,> 100 µM,> 100 µM,> 100 µM,> 100 µM,,,,,,,,
CC(=O)c1nc2ccccc2n1CC(=O)c1ccc([N+](=O)[O-])cc1,> 100 µM,> 100 µM,28.9 µM,> 100 µM,25.1 µM,15.7 µM,> 100 µM,84.5 µM,41.6 µM,15.9 µM,,,,,,,,
CCOC(=O)c1c(OCC)[nH]c(=O)c(C(c2ccc(F)cc2)c2c(O)c(C(=O)OCC)c(OCC)[nH]c2=O)c1O,29 µM,32.7 µM,> 100 µM,23 µM,> 100 µM,42 µM,> 100 µM,71 µM,51.1 µM,39.7 µM,,,,,,,,
CC(=O)OCc1ccc(-c2nc(C#N)c(N)o2)o1,> 10 µM,> 10 µM,> 10 µM,> 10 µM,> 10 µM,> 10 µM,> 10 µM,> 10 µM,> 10 µM,> 10 µM,,,,,,,,
CC(=O)C1=CC=C/C1=N\Nc1ccccc1,4.95 µM,18.3 µM,34.9 µM,34.5 µM,17.5 µM,19.1 µM,11.2 µM,29.6 µM,15.6 µM,15.4 µM,,,,,,,,
COC(=O)c1ccc(/C=C/C2=CC(=O)C=CC2=O)cc1,12.7 µM,33.5 µM,> 100 µM,42.2 µM,29.6 µM,3.6 µM,6.54 µM,7.11 µM,48 µM,26.1 µM,,,,,,,,
CCCCN(CCCC)CC(=O)c1ccc2cc(Cl)c3ccccc3c2c1,> 100 µM,76.6 µM,> 100 µM,46.2 µM,> 100 µM,47.3 µM,> 100 µM,> 100 µM,> 100 µM,> 100 µM,,,,,,,,
COc1ccccc1NC(=S)N/N=C(/c1ccccc1)c1ccccn1,1.34 µM,27.2 µM,53.9 µM,13.9 µM,14.7 µM,17.3 µM,9.54 µM,0.403 µM,18.4 µM,18.7 µM,,,,,,,,
CC1CCN(c2nnc(Cl)cc2C(=O)c2ccccc2)CC1,45.6 µM,> 100 µM,88.7 µM,53.9 µM,> 100 µM,77.7 µM,45.9 µM,55 µM,59.6 µM,> 100 µM,,,,,,,,
CC1OC(OC2C(CO)OC(O[C@H]3CC[C@@]4(C)C(=CC[C@H]5[C@@H]6C[C@@H]7O[C@](O)(CC[C@@H](C)COC8OC(CO)C(O)C(O)C8O)[C@@H](C)[C@@H]7[C@@]6(C)CC[C@@H]54)C3)C(OC3OC(C)C(O)C(O)C3O)C2O)C(O)C(O)C1O (stereo not given in full),11 µM,17.9 µM,> 100 µM,5.38 µM,4.76 µM,4.41 µM,6.38 µM,3.71 µM,2.97 µM,3.89 µM,,,,,,,,

# — PubChem BioAssay (NCI)
